Measured values published in PMC4521081, “Thiophenecarboxamide Derivatives Activated by EthA Kill Mycobacterium tuberculosis by Inhibiting the CTP Synthetase PyrG” (Chemistry & Biology, 2015).
Converted amounts (≈) assume the structure as drawn.

Legend:
[1] = tested on: M. tuberculosis pyrG mutant 88.7 (V186G); type: cell-based, Mycobacterium tuberculosis
[2] = tested on: M. tuberculosis ethA mutant 81.10 (Δ1109–1137); type: cell-based, Mycobacterium tuberculosis
[3] = tested on: M. tuberculosis 82.14 (ethA W45R, pyrG V186G); type: cell-based, Mycobacterium tuberculosis
[4] = tested on: M. tuberculosis 82.19 (ethA L129P, pyrG V186G); type: cell-based, Mycobacterium tuberculosis
[5] = tested on: M. tuberculosis 82.22 (ethA ΔT-94, pyrG V186G); type: cell-based, Mycobacterium tuberculosis
[6] = tested on: M. tuberculosis 88.10 (pyrG V186G); type: cell-based, Mycobacterium tuberculosis
[7] = target: PyrG V186G mutant (Mycobacterium tuberculosis, UniProt P9WHK7, V186G); type: biochemical, M. tuberculosis

| Compound | MIC [1] [µg/mL] | resistance of 81.10 mutant (mutated in ethA gene) [2] | MIC [3] [µg/mL] | MIC [4] [µg/mL] | MIC [5] [µg/mL] | MIC [6] [µg/mL] | MIC [2] [µg/mL] | % of inhibition at 200 M PyrG V186G mutant [7] [%] | activity against PyrG V186G mutant [7] |
| --- | --- | --- | --- | --- | --- | --- | --- | --- | --- |
| Cc1ccc(C(=O)O)s1 [compound 11326028, 5-methylthiophene-2-carboxylic acid] | > 8 | resistant |  |  |  |  |  |  |  |
| O=C(CCc1ccccc1)NC(=S)Nc1ccc(N2CCCCC2)cc1 [compound 7904688, 3-phenyl-N-[(4-piperidin-1-ylphenyl)carbamothioyl]propanamide] | 10 (≈ 27.2 µM) |  | >40 | >40 | >40 | 10 (≈ 27.2 µM) | >40 |  |  |
| CCc1cc(C(N)=S)ccn1 [ETH, ethionamide, reference compound] | 0.5 (≈ 3.01 µM) |  | 10 (≈ 60.2 µM) | 10 (≈ 60.2 µM) | 10 (≈ 60.2 µM) | 0.5 (≈ 3.01 µM) | 10 (≈ 60.2 µM) |  |  |
| COc1ccc(NC(=O)c2cc([N+](=O)[O-])c(C)s2)cc1OC [compound 11326054] | > 8 | resistant |  |  |  |  |  |  |  |
| Cc1ccc(C(=O)Nc2ccc([N+](=O)[O-])cc2)s1 [compound 7947882, 5-methyl-N-(4-nitrophenyl)thiophene-2-carboxamide] |  |  | >40 | >40 | >40 | 5 to 10 |  |  |  |
| CC1=CC=C(C(=O)Nc2ccc([N+](=O)[O-])cc2)S1(=O)=O [compound 11426026] | 2.5 (≈ 8.5 µM) |  |  |  |  |  | 1 (≈ 3.4 µM) | 18.3 ± 1.5 | not active |
